Results on 4 molecules are retold here after patent publication US5888494A, “Film-forming compositions of antihyperalgesic opiates and method of treating hyperalgesic and pruritic conditions therewith” (priority 1997, dated 1999).

The conditions of data set [1]: in vivo; hydrochloride; cited from earlier work.
Data set [2] deals with Compound 48/80-induced scratching. Briefly: mouse scratch model: antagonism of Compound 48/80-induced scratching (anti-pruritic activity). It is filed as in vivo, male Swiss albino mice. To be noted: sc, 0.5 h, Compound 48/80 challenge, 30 min observation. As for the experimental part: Testing was performed in a mouse scratch model under blind conditions.
Groups of 8-10 male Swiss albino mice (Hilltop Lab Animals, Inc., Scottsdale, Pa.), weighing […], were used in the testing. They were housed under controlled temperature of 23°-25° C. Food and water were freely available. Before the experiments, the mice were weighted, put into individual boxes and allowed to acclimate for 30 min.
Vehicle used to dissolve the test compounds: 20% w/w cremafor EL.
The compounds to be tested for anti-pruritic activity were dissolved in the vehicle of 20% w/w cremafor EL.
100 μl of the vehicle (3-5 doses, n=8-10) was injected s.c. into the back of the neck of mice 20 min. before challenging them with 100 μl of Compound 48/80 (2 mg/ml; […]) injected s.c. into the back of the neck.
To each mouse of a group of 8-10 mice previously subjected to the standard challenge various doses of the compounds, to be tested for anti-pruritic activity, were administered s.c. into the back of the neck.
For each group of 8-10 mice, the mean values for scratching were no to relative % antagonism of scratching and then plotted vs. dose of test compounds. Interval estimates of mean A50 were determined by nonlinear regression analysis (Kaleida Graph) and mean % inhibition of scratching was calculated.

The conditions of data set [3]: in vivo, iv; cited from earlier work.

Structures can show the parent of a compound that is named as a salt.

For the molecule `CN(C)C(=O)C(CCN1CCC(O)(c2ccc(Cl)cc2)CC1)(c1ccccc1)c1ccccc1` [Loperamide HCl, 4-(p-chlorophenyl)-4-hydroxy-N-N-dimethyl-α,α-diphenyl-1-piperidinebutyramide hydrochloride], in data set [1], the CNS effects entry is “completely free of the undesirable CNS effects”.
A word on the inhibition: it is the relative decrease from the control value, in per cent. A high value points to a response far below the control. As for `O=C(O)C1(c2ccccc2)CCN(CCC(c2ccccc2)(c2ccccc2)c2ccccn2)CC1` [(1), 1-[3,3-diphenyl-3-(2-pyridyl)propyl]-4-phenyl-4-piperidinecarboxylic acid hydrochloride], in data set [2], the inhibition at 2.5 mg/kg amounted to 32% and 5 mg/kg produced 65% inhibition. The same molecule returned an inhibition at 10 mg/kg in data set [2] (10.0 mg/kg) of 83%.
Regarding `CN1CC[C@]23c4c5ccc(O)c4O[C@H]2[C@@H](O)C=C[C@H]3[C@H]1C5` [morphine], the “general itching, incidence” value in data set [3] is recorded as “about 1 % of patients”.
Take `OC1(Cc2ccc(Cl)cc2)CCN(CCC(c2ccccc2)(c2ccccc2)c2ccccc2)CC1` [(2), 1-(3,3,3-triphenylpropyl)-4-hydroxy-4-p-chlorobenzylpiperidine]: in data set [2] (1.0 mg/kg), at 1 mg/kg the inhibition was 35%. Further, in data set [2], the inhibition at 2.5 mg/kg turned out to be 68% and the inhibition at 5 mg/kg came out at 94%.
